Structures can show the parent of a compound that is named as a salt.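 Growth conditions: 96-well plates. Treatment: test compound, 48 hours, 5 concentrations. Analysis: linear interpolation between bracketing concentrations; unreached endpoints set to highest concentration. Abbreviation: GI50, concentration required for 50% inhibition of growth.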 Activity calls are given as the source filed them. No stated cut-off is given here; in the data, active = GI50 up to about 1.1 µM and inactive = higher.
Legend:
Assay in all cases: DTP human tumour cell line panel, 48 h
[1] = test system: 786-0
[2] = test system: A498
[3] = test system: A549
[4] = test system: CCRF-CEM
[5] = test system: DU-145
[6] = test system: HOP-92
[7] = test system: IGROV-1
[8] = test system: M14
[9] = test system: MCF7
[10] = test system: MDA-MB-435
[11] = test system: MDA-N
[12] = test system: Malme-3M
[13] = test system: OVCAR-8
[14] = test system: PC-3
[15] = test system: SK-OV-3
[16] = test system: SNB-75
[17] = test system: CAKI-1
[18] = test system: MDA-MB-231
[19] = test system: NCI-H23
[20] = test system: NCI-H460

Row | Compound | GI50 [1] | GI50 [2] | GI50 [3] | GI50 [4] | GI50 [5] | GI50 [6] | GI50 [7] | GI50 [8] | GI50 [9] | GI50 [10] | GI50 [11] | GI50 [12] | GI50 [13] | GI50 [14] | GI50 [15] | GI50 [16] | GI50 [17] | GI50 [18] | GI50 [19] | GI50 [20]
1 | O=C(O)C(C(C(=O)O)P(=O)(O)O)P(=O)(O)O (centres undefined) | > 100 µM (inactive) | > 100 µM (inactive) | > 100 µM (inactive) | > 100 µM (inactive) | > 100 µM (inactive) | 86.1 µM (inactive) | > 100 µM (inactive) | > 100 µM (inactive) | > 100 µM (inactive) | > 100 µM (inactive) | > 100 µM (inactive) | > 100 µM (inactive) | > 100 µM (inactive) | > 100 µM (inactive) | > 100 µM (inactive) | > 100 µM (inactive) | – | – | – | –
2 | CC1=CC(=O)C[C@]2(C)[C@@H](O)CC(C(C)CO)C[C@@H]12 (some centres undefined) | > 100 µM (inactive) | > 100 µM (inactive) | > 100 µM (inactive) | – | > 100 µM (inactive) | > 100 µM (inactive) | > 100 µM (inactive) | > 100 µM (inactive) | > 100 µM (inactive) | > 100 µM (inactive) | > 100 µM (inactive) | – | > 100 µM (inactive) | – | > 100 µM (inactive) | > 100 µM (inactive) | > 100 µM (inactive) | > 100 µM (inactive) | > 100 µM (inactive) | > 100 µM (inactive)
3 | CC(C)CCC[C@@H](C)[C@H]1CC[C@H]2[C@@H]3CC[C@H]4C[C@@H](CCC=C(c5cc(Cl)c(O)c(C(=O)O)c5)c5cc(Cl)c(O)c(C(=O)O)c5)CC[C@]4(C)[C@H]3CC[C@]12C | > 100 µM (inactive) | > 100 µM (inactive) | > 100 µM (inactive) | > 100 µM (inactive) | > 100 µM (inactive) | > 100 µM (inactive) | > 100 µM (inactive) | > 100 µM (inactive) | > 100 µM (inactive) | > 100 µM (inactive) | – | > 100 µM (inactive) | > 100 µM (inactive) | > 100 µM (inactive) | > 100 µM (inactive) | > 100 µM (inactive) | > 100 µM (inactive) | > 100 µM (inactive) | > 100 µM (inactive) | > 100 µM (inactive)
4 | CC1(C)OC([C@H](O)CO)C([C@H]2NCCS2)O1 (some centres undefined) | > 100 µM (inactive) | > 100 µM (inactive) | > 100 µM (inactive) | > 100 µM (inactive) | > 100 µM (inactive) | > 100 µM (inactive) | > 100 µM (inactive) | > 100 µM (inactive) | – | > 100 µM (inactive) | – | > 100 µM (inactive) | > 100 µM (inactive) | > 100 µM (inactive) | > 100 µM (inactive) | > 100 µM (inactive) | > 100 µM (inactive) | > 100 µM (inactive) | > 100 µM (inactive) | > 100 µM (inactive)
5 | Cn1c(=O)c2nc(/N=N/Nc3nncs3)[nH]c2n(C)c1=O | > 100 µM (inactive) | > 100 µM (inactive) | > 100 µM (inactive) | > 100 µM (inactive) | > 100 µM (inactive) | > 100 µM (inactive) | > 100 µM (inactive) | > 100 µM (inactive) | > 100 µM (inactive) | > 100 µM (inactive) | – | – | > 100 µM (inactive) | > 100 µM (inactive) | > 100 µM (inactive) | – | > 100 µM (inactive) | > 100 µM (inactive) | > 100 µM (inactive) | > 100 µM (inactive)
6 | N=c1oc2ccc([N+](=O)[O-])cc2cc1C(=O)NCc1ccccc1 | 24.6 µM (inactive) | – | 57.1 µM (inactive) | 27 µM (inactive) | 33 µM (inactive) | 18 µM (inactive) | 12.3 µM (inactive) | 23.4 µM (inactive) | 35.7 µM (inactive) | 23.1 µM (inactive) | – | 13.5 µM (inactive) | 15.2 µM (inactive) | 19.6 µM (inactive) | 39.2 µM (inactive) | 11.5 µM (inactive) | 19.2 µM (inactive) | 22 µM (inactive) | – | 41 µM (inactive)
7 | O=C(O)c1c2c(cc3c1CC1(Cc4ccccc4C1=O)C3)CCC2 (centres undefined) | 47.5 µM (inactive) | 33 µM (inactive) | 11.1 µM (inactive) | 9.91 µM (inactive) | 64 µM (inactive) | 25.5 µM (inactive) | > 61.5 µM (inactive) | 18.9 µM (inactive) | 26.2 µM (inactive) | 3.69 µM (inactive) | – | 16.5 µM (inactive) | 44.9 µM (inactive) | 27.2 µM (inactive) | 47.4 µM (inactive) | 26.5 µM (inactive) | 41.5 µM (inactive) | 34.6 µM (inactive) | 44 µM (inactive) | 4.62 µM (inactive)
8 | CN(C)c1ccc(/C=C(\NC(=O)c2ccccc2)C(=O)NC(CC(=O)O)C(=O)O)cc1 (centres undefined) | 41.9 µM (inactive) | > 100 µM (inactive) | > 100 µM (inactive) | > 100 µM (inactive) | > 100 µM (inactive) | > 100 µM (inactive) | > 100 µM (inactive) | > 100 µM (inactive) | > 100 µM (inactive) | > 100 µM (inactive) | – | – | 68.9 µM (inactive) | > 100 µM (inactive) | > 100 µM (inactive) | 1.99 µM (inactive) | > 100 µM (inactive) | > 100 µM (inactive) | > 100 µM (inactive) | 65.9 µM (inactive)
9 | Cc1c2ccccc2c(/C=N/NC(=O)CSCC(=O)N/N=C/c2c3ccccc3c(C)c3ccccc23)c2ccccc12 | 20.7 µM (inactive) | 21.7 µM (inactive) | > 64.1 µM (inactive) | 34.2 µM (inactive) | > 55.8 µM (inactive) | 13.2 µM (inactive) | > 100 µM (inactive) | > 52.5 µM (inactive) | 23 µM (inactive) | > 79.6 µM (inactive) | – | 37 µM (inactive) | 16.2 µM (inactive) | > 31.4 µM (inactive) | > 100 µM (inactive) | > 27.4 µM (inactive) | > 67.1 µM (inactive) | 31.2 µM (inactive) | 11.4 µM (inactive) | > 57.7 µM (inactive)
10 | CCOC(=O)c1c(NC(=O)c2cccs2)sc2c1CCC2 | > 100 µM (inactive) | > 100 µM (inactive) | > 100 µM (inactive) | > 100 µM (inactive) | > 100 µM (inactive) | – | > 100 µM (inactive) | > 100 µM (inactive) | > 100 µM (inactive) | – | > 100 µM (inactive) | – | > 100 µM (inactive) | > 100 µM (inactive) | – | 1.22 µM (inactive) | > 100 µM (inactive) | > 100 µM (inactive) | > 100 µM (inactive) | > 100 µM (inactive)
11 | C#Cc1cccc(Nc2ncnc3cc(OCCOC)c(OCCOC)cc23)c1 [ERLOTINIB HYDROCHLORIDE] | 8.91 µM (inactive) | – | 1.59 µM (inactive) | > 100 µM (inactive) | – | 4.05 µM (inactive) | 0.0857 µM (active) | 6.67 µM (inactive) | – | 4.06 µM (inactive) | 41 µM (inactive) | – | 7.23 µM (inactive) | 34.5 µM (inactive) | 0.286 µM (active) | 14.8 µM (inactive) | < 0.01 µM (active) | 0.0139 µM (active) | 41.7 µM (inactive) | 2.31 µM (inactive)
12 | COC(=O)/C=C(\C)CC/C=C(\C)CCC(O)C(C)(C)O (centres undefined) | 19.4 µM (inactive) | 33 µM (inactive) | 34.8 µM (inactive) | 15.5 µM (inactive) | – | 29.9 µM (inactive) | 25.8 µM (inactive) | 27.1 µM (inactive) | 37 µM (inactive) | – | 23.8 µM (inactive) | 17.5 µM (inactive) | 25.1 µM (inactive) | 14.8 µM (inactive) | > 100 µM (inactive) | 17.1 µM (inactive) | 20.4 µM (inactive) | > 100 µM (inactive) | 29.2 µM (inactive) | 19.8 µM (inactive)
13 | O=[N+]([O-])C(C(Cl)=C(Cl)Cl)=C(N1CCOCC1)N1CCOCC1 | > 100 µM (inactive) | > 100 µM (inactive) | > 100 µM (inactive) | > 100 µM (inactive) | > 100 µM (inactive) | – | > 100 µM (inactive) | > 100 µM (inactive) | – | > 100 µM (inactive) | > 100 µM (inactive) | 57.3 µM (inactive) | > 100 µM (inactive) | > 100 µM (inactive) | > 100 µM (inactive) | 1.14 µM (inactive) | > 100 µM (inactive) | > 100 µM (inactive) | > 100 µM (inactive) | –
14 | CC(=O)OC1COC(n2c(=S)n(-c3ccccc3)c(=O)c3ccccc32)C(OC(C)=O)C1OC(C)=O (centres undefined) | 78.9 µM (inactive) | > 100 µM (inactive) | 39.9 µM (inactive) | 32.7 µM (inactive) | – | 37.1 µM (inactive) | 67.3 µM (inactive) | 21.3 µM (inactive) | – | – | – | > 100 µM (inactive) | 72.8 µM (inactive) | – | > 100 µM (inactive) | > 100 µM (inactive) | 2.94 µM (inactive) | – | 70 µM (inactive) | 66.1 µM (inactive)
15 | O=C1Cc2c([nH]c3ccc(Br)cc23)-c2ccccc2N1 [KENPAULLONE] | > 46.3 µM (inactive) | > 100 µM (inactive) | > 90.2 µM (inactive) | 5.55 µM (inactive) | > 100 µM (inactive) | > 100 µM (inactive) | 9.75 µM (inactive) | > 100 µM (inactive) | – | > 100 µM (inactive) | > 100 µM (inactive) | > 100 µM (inactive) | > 100 µM (inactive) | > 100 µM (inactive) | > 100 µM (inactive) | > 50.8 µM (inactive) | – | > 100 µM (inactive) | > 100 µM (inactive) | > 100 µM (inactive)

From ChEMBL document CHEMBL1201862, “PubChem BioAssay data set” (2004)
